We go through 19 compounds from US7329657B2, “Indazolyl-substituted pyrroline compounds as kinase inhibitors” (Ortho-McNeil Pharmaceutical, Inc., priority 2000, dated 2008).

What all share (format): biochemical
The target of one experiment is PKC γ (Homo sapiens, UniProt P05129). Briefly: Protein Kinase C Histone-Based Assay, γ isoform. Particulars: histone III substrate, 30 μM ATP, 10 min at 30° C.; read-out: PKC Activity (IC50 μM, Histone Based Assay) Gamma. As to the method: (§1) Compounds were evaluated for PKC selectivity using histone III as the substrate. […] The reaction was incubated for 10 min at 30° C. Reactions were terminated by TCA precipitation and spotting on Whatman P81 filters. Filters were washed in 75 mM phosphoric acid and the radioactivity quantified by liquid scintillation counting.

The target of another experiment is PKC α (Homo sapiens, UniProt P17252). The experiment is described as follows: Protein Kinase C Histone-Based Assay, α isoform. As to conditions: histone III substrate, 30 μM ATP, 10 min at 30° C.; read-out: PKC Activity (IC50 μM, Histone Based Assay) Alpha. As to the method:
as §1

The next experiment addresses PKC β-II (Homo sapiens, UniProt P05771). Briefly: Protein Kinase C Histone-Based Assay, β-II isoform. As to conditions: histone III substrate, 30 μM ATP, 10 min at 30° C.; read-out: PKC Activity (IC50 μM, Histone Based Assay) Beta II. As for the experimental part: as §1

Sequence of PKC β-II (P05771 1-673 isoform P05771-2): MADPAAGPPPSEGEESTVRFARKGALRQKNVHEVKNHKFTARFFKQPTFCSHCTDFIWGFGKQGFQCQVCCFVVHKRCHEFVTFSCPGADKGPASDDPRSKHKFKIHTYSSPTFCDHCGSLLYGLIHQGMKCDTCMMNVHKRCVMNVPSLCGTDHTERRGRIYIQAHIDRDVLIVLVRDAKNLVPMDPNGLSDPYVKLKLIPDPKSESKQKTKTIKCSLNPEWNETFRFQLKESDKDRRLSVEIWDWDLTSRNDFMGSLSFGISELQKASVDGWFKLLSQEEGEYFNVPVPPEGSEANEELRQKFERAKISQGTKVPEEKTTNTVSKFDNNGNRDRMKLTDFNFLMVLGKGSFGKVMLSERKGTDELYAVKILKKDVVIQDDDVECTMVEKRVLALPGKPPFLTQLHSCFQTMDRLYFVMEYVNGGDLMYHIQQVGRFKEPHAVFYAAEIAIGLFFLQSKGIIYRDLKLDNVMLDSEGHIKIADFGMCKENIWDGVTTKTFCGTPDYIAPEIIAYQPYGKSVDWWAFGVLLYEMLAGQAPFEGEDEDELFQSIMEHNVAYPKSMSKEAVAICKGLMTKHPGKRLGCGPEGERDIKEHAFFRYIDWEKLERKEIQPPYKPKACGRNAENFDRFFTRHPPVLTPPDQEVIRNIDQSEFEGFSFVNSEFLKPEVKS

Consider `CN(C)CCCn1nc(C2=C(c3cn(-c4cccs4)c4ccccc34)C(=O)NC2=O)c2ccccc21` [Compound 9, 3-[1-[3-(dimethylamino)propyl]-1H-indazol-3-yl]-4-[1-(2-thienyl)-1H-indol-3-yl]-1H-pyrrole-2,5-dione], for which the values for the half-maximal inhibitory concentration (IC50) on PKC γ, at PKC α and on PKC β-II were 0.262 µM, 0.141 µM and 0.008 µM, respectively.

`CN(C)CCCn1nc(C2=C(c3cn(-c4cccnc4)c4ccccc34)C(=O)NC2=O)c2ccccc21` [Compound 12, 3-[1-[3-(dimethylamino)propyl]-1H-indazol-3-yl]-4-[1-(3-pyridinyl)-1H-indol-3-yl]-H-pyrrole-2,5-dione]: the concentration for half-maximal inhibition (IC50) was 0.213 µM on PKC γ, 0.124 µM at PKC α and 0.007 µM at PKC β-II.

Take `CN(C)CCCn1nc(C2=C(c3cn(-c4cccnc4)c4ccc(Cl)cc34)C(=O)NC2=O)c2ccccc21` [Compound 13, 3-[5-chloro-1-(3-pyridinyl)-1H-indol-3-yl]-4-[1-[3-(dimethylamino)propyl]-1H-indazol-3-yl]-1H-pyrrole-2,5-dione]: the half-inhibitory concentration (IC50) is 0.045 µM on PKC γ, 0.011 µM on PKC α and 0.004 µM at PKC β-II.

With `CN(C)CCCn1nc(C2=C(c3cn(-c4ccc5ccccc5c4)c4ccccc34)C(=O)NC2=O)c2ccccc21` [Compound 14, 3-[1-[3-(dimethylamino)propyl]-1H-indazol-3-yl]-4-[1-(2-naphthalenyl)-1H-indol-3-yl]-1H-pyrrole-2,5-dione], the results for the IC50 on PKC γ, at PKC α and on PKC β-II were 0.115 µM, 0.057 µM and 0.005 µM, respectively.

Regarding `CN(C)CCCn1nc(C2=C(c3cn(-c4cccc5ccccc45)c4ccccc34)C(=O)NC2=O)c2ccccc21` [Compound 15, 3-[1-[3-(dimethylamino)propyl]-1H-indazol-3-yl]-4-[1-(1-naphthalenyl)-1H-indol-3-yl]-1H-pyrrole-2,5-dione], the half-maximal inhibitory concentration (IC50) at PKC γ turned out to be 3.35 µM; on PKC α, 1.23 µM; at PKC β-II, 0.029 µM.

For the compound `CN(C)CCCn1nc(C2=C(c3cn(-c4cncc5ccccc45)c4ccccc34)C(=O)NC2=O)c2ccccc21` [Compound 16, 3-[1-[3-(dimethylamino)propyl]-1H-indazol-3-yl]-4-[1-(4-isoquinolinyl)-1H-indol-3-yl]-1H-pyrrole-2,5-dione], the IC50 at PKC γ is 0.253 µM; on PKC α it was 0.29 µM; at PKC β-II it was 0.015 µM.

`CN(C)CCCn1nc(C2=C(c3cn(-c4cnc5ccccc5c4)c4ccccc34)C(=O)NC2=O)c2ccccc21` [Compound 19, 3-[1-[3-(dimethylamino)propyl]-1H-indazol-3-yl]-4-[1-(3-quinolinyl)-1H-indol-3-yl]-1H-pyrrole-2,5-dione]: the IC50 on PKC γ was 0.047 µM; on PKC α, 0.011 µM; at PKC β-II, 0.004 µM.

As to `O=C1NC(=O)C(c2nn(CCCN3CCOCC3)c3ccccc23)=C1c1cn(-c2cnc3ccccc3c2)c2ccccc12` [Compound 22, 3-[1-[3-(4-morpholinyl)propyl]-1H-indazol-3-yl]-4-[1-(3-quinolinyl)-1H-indol-3-yl]-1H-pyrrole-2,5-dione], the IC50 came out at 0.09 µM on PKC γ, 0.043 µM on PKC α and 0.006 µM at PKC β-II.

Regarding `O=CCCn1nc(C2=C(c3cn(-c4cnc5ccccc5c4)c4ccccc34)C(=O)NC2=O)c2ccccc21` [Compound 23, 3-[2,5-dihydro-2,5-dioxo-4-[1-(3-quinolinyl)-1H-indol-3-yl]-1H-pyrrol-3-yl]-1H-indazole-1-propionaldehyde], the IC50 at PKC γ stood at 0.188 µM; on PKC α, 0.546 µM; on PKC β-II, 0.054 µM.

Consider `O=C1NC(=O)C(c2nn(CCC3OCCO3)c3ccccc23)=C1c1cn(-c2cnc3ccccc3c2)c2ccccc12` [Compound 24, 3-[1-[2-(1,3-dioxolan-2-yl)ethyl]-1H-indazol-3-yl]-4-[1-(3-quinolinyl)-1H-indol-3-yl]-1H-pyrrole-2,5-dione], for which the IC50 at PKC γ was 1.29 µM; at PKC α it was 0.2 µM; on PKC β-II, 0.029 µM.

On to `CN(C)CCCn1nc(C2=C(c3cn(-c4ccccn4)c4ccccc34)C(=O)NC2=O)c2ccccc21` [Compound 31, 3-[1-[3-(dimethylamino)propyl]-1H-indazol-3-yl]-4-[1-(2-pyridinyl)-1H-indol-3-yl]-1H-pyrrole-2,5-dione], for which the IC50 on PKC γ was 0.091 µM; at PKC α, 0.106 µM; at PKC β-II, 0.015 µM.

With `CN(C)CCCn1nc(C2=C(c3cn(-c4cncnc4)c4ccccc34)C(=O)NC2=O)c2ccccc21` [Compound 34, 3-[1-[3-(dimethylamino)propyl]-1H-indazol-3-yl]-4-[1-(5-pyrimidinyl)-1H-indol-3-yl]-1H-pyrrole-2,5-dione], the results for the IC50 at PKC γ, at PKC α and on PKC β-II were 0.665 µM, 0.205 µM and 0.009 µM, respectively.

As for `CN(C)CCCn1nc(C2=C(c3cn(-c4ccccc4)c4ccccc34)C(=O)NC2=O)c2ccccc21` [Compound 45, 3-[1-[3-(dimethylamino)propyl]-1H-indazol-3-yl]-4-(1-phenyl-1H-indol-3-yl)-1H-pyrrole-2,5-dione], the 50% inhibitory concentration (IC50) at PKC γ was 0.168 µM; on PKC α, 0.071 µM; on PKC β-II, 0.01 µM.

With `CN(C)CCCn1nc(C2=C(c3cn(-c4csc5ccccc45)c4ccccc34)C(=O)NC2=O)c2ccccc21` [Compound 60, 3-(1-benzo[b]thien-3-yl-1H-indol-3-yl)-4-[1-[3-(dimethylamino)propyl]-1H-indazol-3-yl]-1H-pyrrole-2,5-dione], the IC50 at PKC γ is 0.713 µM; at PKC α, 0.611 µM; on PKC β-II it was 0.037 µM.

Take `CN(C)CCCn1nc(C2=C(c3cn(-c4ccc5cc(O)ccc5c4)c4ccccc34)C(=O)NC2=O)c2ccccc21` [Compound 64, 3-[1-[3-(dimethylamino)propyl]-1H-indazol-3-yl]-4-[1-(6-hydroxy-2-naphthalenyl)-1H-indol-3-yl]-1H-pyrrole-2,5-dione]: the IC50 was 0.215 µM on PKC γ, 0.101 µM on PKC α and 0.013 µM on PKC β-II.

`CN(C)CCCn1nc(C2=C(c3cn(Cc4ccc5ccccc5n4)c4ccccc34)C(=O)NC2=O)c2ccccc21` [Compound 67, 3-[1-[3-(dimethylamino)propyl]-1H-indazol-3-yl]-4-[1-(2-quinolinylmethyl)-1H-indol-3-yl]-1H-pyrrole-2,5-dione]: the IC50 at PKC γ is 0.65 µM; on PKC α, 1.48 µM; at PKC β-II, 0.016 µM.

As for `O=C1NC(=O)C(c2nn(CCCN3CCOCC3)c3ccccc23)=C1c1cn(-c2ccc3ccccc3c2)c2ccccc12` [Compound 70, 3-[1-[3-(4-morpholinyl)propyl]-1H-indazol-3-yl]-4-[1-(2-naphthalenyl)-1H-indol-3-yl]-1H-pyrrole-2,5-dione], the IC50 on PKC γ turned out to be 0.342 µM; on PKC α, 0.259 µM; on PKC β-II, 0.018 µM.

Take `CN(C)CCn1nc2ccccc2c1C1=C(c2cn(-c3csc4ccccc34)c3ccccc23)C(=O)NC1=O` [Compound 123, 3-(1-benzo[b]thien-3-yl-1H-indol-3-yl)-4-[2-[2-(dimethylamino)ethyl]-2H-indazol-3-yl]-1H-pyrrole-2,5-dione]: the 50% inhibitory concentration (IC50) at PKC β-II was 0.026 µM.

`CN(C)CCCn1nc(C2=C(c3cn(-c4cccnc4)c4ccccc34)C(=O)NC2)c2ccccc21` [Compound 125, 4-[1-[3-(dimethylamino)propyl]-1H-indazol-3-yl]-1,5-dihydro-3-[1-(3-pyridinyl)-1H-indol-3-yl]-2H-pyrrol-2-one]: the half-inhibitory concentration (IC50) on PKC α was found to be 0.339 µM; on PKC β-II, 0.005 µM.
